Patent US11208412B2 (DAEGU-GYEONGBUK MEDICAL INNOVATION FOUNDATION, priority 2017, dated 2021)

What was measured:
Assay in all cases: Kinase selectivity, DiscoverX scanMAX Kinase assay panel (% control)
Assay type in all cases: binding
[1] = target: T1, kinases of the scanMAX Kinase assay panel (Homo sapiens, UniProt O75747); details: PIK3C2G; 1 uM
T1 construct: purchased DiscoverX Co. (contract measurement) scanMAX Kinase assay panel
T1 sequence (O75747 1-1486): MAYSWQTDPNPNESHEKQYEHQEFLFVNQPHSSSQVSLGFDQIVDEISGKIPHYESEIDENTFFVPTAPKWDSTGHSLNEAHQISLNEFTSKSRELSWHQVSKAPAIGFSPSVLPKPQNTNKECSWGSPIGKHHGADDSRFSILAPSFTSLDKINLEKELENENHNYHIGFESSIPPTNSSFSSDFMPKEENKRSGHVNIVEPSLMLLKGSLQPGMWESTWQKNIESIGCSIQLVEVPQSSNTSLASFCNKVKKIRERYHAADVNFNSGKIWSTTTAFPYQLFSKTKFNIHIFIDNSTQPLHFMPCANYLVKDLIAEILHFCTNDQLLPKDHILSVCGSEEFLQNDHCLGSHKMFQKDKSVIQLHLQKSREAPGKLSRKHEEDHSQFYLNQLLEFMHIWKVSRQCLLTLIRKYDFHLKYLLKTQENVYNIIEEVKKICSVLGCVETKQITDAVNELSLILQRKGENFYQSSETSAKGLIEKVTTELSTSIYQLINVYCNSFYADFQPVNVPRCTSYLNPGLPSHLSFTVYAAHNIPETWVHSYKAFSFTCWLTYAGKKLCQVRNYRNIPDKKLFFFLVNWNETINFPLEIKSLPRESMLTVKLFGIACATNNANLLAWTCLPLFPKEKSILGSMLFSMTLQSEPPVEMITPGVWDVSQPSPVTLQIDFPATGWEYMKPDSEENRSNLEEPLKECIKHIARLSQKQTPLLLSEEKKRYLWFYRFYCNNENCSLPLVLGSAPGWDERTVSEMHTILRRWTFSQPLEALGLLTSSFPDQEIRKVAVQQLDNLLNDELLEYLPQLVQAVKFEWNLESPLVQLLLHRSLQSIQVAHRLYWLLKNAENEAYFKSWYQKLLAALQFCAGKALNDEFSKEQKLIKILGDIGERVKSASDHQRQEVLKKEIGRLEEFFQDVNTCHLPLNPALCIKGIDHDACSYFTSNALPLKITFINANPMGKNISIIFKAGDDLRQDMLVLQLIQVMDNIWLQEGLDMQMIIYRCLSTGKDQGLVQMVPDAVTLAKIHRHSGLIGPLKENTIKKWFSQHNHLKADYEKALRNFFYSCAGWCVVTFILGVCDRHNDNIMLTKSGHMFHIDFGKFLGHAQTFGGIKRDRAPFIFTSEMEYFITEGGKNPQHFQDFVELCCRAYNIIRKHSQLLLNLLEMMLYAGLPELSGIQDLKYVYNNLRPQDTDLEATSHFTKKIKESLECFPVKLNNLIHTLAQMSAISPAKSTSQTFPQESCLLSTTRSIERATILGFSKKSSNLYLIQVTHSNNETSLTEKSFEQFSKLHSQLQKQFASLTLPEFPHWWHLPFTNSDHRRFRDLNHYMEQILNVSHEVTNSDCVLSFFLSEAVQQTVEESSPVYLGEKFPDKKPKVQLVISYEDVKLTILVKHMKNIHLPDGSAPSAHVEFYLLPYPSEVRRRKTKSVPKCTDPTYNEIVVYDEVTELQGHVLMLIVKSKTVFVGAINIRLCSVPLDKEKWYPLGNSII
Summary of the method: (§1)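 Binding-panel profiling at one concentration, 1 uM in DMSO; values are % of DMSO control after subtracting the positive-control floor. Less than 35% means activity on that kinase.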

[2] = target: T2, kinases of the scanMAX Kinase assay panel (Homo sapiens, UniProt P00533, G719S); details: EGFR(G719S); 1 uM
T2 construct: purchased DiscoverX Co. (contract measurement) scanMAX Kinase assay panel
Summary of the method: as §1

[3] = target: T3, kinases of the scanMAX Kinase assay panel (Homo sapiens, UniProt P04626); details: ERBB2; 1 uM
T3 construct: purchased DiscoverX Co. (contract measurement) scanMAX Kinase assay panel
Summary of the method: as §1

[4] = target: T4, kinases of the scanMAX Kinase assay panel (Homo sapiens, UniProt P45983); details: JNK1; 1 uM
T4 construct: purchased DiscoverX Co. (contract measurement) scanMAX Kinase assay panel
Summary of the method: as §1

[5] = target: T5, kinases of the scanMAX Kinase assay panel (Homo sapiens, UniProt Q13177); details: PAK2; 1 uM
T5 construct: purchased DiscoverX Co. (contract measurement) scanMAX Kinase assay panel
Summary of the method: as §1

[6] = target: T6, kinases of the scanMAX Kinase assay panel (Homo sapiens, UniProt Q9NYY3); details: PLK2; 1 uM
T6 construct: purchased DiscoverX Co. (contract measurement) scanMAX Kinase assay panel
Summary of the method: as §1

[7] = target: T7, kinases of the scanMAX Kinase assay panel (Homo sapiens, UniProt Q9UKI8); details: kinase TLK1; 1 uM in DMSO
T7 construct: purchased DiscoverX Co. (contract measurement) scanMAX Kinase assay panel
T7 sequence (Q9UKI8 1-766): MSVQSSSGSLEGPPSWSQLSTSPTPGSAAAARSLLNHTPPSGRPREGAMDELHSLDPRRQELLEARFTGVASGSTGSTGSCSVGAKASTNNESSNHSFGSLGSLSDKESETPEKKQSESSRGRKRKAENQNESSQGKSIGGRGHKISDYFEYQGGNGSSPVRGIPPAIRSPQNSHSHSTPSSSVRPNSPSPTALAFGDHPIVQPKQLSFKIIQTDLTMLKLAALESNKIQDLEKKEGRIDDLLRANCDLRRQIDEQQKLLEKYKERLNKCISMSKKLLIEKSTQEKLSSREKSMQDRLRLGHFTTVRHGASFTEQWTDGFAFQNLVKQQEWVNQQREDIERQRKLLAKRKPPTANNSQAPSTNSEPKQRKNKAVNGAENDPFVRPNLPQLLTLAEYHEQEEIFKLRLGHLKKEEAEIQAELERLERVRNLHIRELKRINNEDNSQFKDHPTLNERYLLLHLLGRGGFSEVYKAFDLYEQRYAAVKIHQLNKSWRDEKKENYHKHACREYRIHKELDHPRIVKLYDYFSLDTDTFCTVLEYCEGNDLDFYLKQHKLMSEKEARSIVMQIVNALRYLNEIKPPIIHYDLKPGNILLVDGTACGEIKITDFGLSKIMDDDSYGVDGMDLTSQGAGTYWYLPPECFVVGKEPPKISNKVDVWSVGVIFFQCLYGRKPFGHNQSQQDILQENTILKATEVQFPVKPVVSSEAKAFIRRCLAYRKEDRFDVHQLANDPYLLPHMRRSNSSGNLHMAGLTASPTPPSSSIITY
Summary of the method: as §1

T5 sequence (Q13177 whole entry): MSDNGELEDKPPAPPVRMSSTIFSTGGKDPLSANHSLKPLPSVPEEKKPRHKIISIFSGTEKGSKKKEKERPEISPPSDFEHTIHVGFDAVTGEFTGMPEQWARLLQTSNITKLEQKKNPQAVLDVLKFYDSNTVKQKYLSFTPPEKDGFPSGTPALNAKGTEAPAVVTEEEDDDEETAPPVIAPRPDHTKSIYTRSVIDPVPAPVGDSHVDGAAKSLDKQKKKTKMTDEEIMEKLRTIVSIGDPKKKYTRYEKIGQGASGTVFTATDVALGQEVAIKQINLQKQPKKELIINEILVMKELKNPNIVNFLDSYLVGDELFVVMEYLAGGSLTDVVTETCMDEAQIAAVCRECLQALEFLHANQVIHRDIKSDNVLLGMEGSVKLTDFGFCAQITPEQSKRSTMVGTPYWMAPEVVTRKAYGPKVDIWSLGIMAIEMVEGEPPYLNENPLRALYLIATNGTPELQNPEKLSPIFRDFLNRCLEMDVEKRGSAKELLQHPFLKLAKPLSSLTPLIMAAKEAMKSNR
T4 sequence (P45983 whole entry): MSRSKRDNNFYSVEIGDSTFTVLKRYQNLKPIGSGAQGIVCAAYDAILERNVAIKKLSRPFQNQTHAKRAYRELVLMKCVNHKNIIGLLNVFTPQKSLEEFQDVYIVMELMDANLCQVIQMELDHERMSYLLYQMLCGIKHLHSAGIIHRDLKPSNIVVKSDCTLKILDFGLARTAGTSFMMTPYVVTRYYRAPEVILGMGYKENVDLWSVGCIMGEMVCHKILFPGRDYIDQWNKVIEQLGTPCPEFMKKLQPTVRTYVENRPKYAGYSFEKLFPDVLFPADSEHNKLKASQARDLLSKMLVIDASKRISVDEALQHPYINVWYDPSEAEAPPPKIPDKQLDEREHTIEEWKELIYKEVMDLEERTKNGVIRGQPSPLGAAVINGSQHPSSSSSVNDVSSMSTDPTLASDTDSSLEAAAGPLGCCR
T2 sequence (P00533 25-1210 G719S): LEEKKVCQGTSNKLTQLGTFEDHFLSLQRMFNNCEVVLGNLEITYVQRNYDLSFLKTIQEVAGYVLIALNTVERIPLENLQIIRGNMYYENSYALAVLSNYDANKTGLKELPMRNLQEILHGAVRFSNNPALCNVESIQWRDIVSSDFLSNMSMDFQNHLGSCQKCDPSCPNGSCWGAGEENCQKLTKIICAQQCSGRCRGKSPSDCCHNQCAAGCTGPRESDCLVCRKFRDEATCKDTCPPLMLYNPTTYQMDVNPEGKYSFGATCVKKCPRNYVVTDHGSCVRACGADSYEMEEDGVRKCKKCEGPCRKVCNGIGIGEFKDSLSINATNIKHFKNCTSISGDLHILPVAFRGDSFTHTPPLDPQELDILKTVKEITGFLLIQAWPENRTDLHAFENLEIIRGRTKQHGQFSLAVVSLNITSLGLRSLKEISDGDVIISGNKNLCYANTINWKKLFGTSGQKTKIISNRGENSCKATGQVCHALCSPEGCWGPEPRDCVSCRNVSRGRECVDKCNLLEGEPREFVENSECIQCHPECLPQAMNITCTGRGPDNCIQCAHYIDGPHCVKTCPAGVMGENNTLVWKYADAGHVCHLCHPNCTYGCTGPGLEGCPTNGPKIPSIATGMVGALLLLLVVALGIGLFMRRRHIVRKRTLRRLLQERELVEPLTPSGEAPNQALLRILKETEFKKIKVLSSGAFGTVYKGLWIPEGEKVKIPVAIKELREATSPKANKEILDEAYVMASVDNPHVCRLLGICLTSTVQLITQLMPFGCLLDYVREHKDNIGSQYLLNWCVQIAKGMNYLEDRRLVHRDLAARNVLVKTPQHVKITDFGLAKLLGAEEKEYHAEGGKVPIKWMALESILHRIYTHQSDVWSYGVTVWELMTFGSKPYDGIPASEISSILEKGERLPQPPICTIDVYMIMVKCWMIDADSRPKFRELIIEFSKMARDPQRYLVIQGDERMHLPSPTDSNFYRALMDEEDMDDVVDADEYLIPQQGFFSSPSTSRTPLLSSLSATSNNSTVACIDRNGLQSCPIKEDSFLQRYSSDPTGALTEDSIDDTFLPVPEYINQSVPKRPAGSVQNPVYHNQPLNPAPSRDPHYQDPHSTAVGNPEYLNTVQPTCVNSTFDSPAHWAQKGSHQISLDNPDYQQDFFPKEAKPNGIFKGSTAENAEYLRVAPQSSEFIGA
T6 sequence (Q9NYY3 whole entry): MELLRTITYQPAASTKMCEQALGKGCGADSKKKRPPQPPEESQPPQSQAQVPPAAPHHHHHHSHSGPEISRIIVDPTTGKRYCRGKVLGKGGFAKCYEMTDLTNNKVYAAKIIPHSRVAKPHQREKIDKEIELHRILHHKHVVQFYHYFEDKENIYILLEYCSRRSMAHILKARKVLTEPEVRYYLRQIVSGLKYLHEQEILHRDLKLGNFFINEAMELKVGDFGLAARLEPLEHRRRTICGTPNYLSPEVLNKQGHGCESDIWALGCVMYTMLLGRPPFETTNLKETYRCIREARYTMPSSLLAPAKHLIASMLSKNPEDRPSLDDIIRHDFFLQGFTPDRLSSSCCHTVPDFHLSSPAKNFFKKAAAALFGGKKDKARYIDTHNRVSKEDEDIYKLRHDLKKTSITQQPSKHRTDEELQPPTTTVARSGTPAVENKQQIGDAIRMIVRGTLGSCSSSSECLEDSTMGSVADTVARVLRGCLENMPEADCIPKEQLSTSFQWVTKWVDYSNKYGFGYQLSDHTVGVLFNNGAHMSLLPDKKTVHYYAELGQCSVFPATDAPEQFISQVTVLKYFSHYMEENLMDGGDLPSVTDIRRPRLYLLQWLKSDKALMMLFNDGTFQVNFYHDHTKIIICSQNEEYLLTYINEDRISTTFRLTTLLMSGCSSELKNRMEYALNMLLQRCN
T3 sequence (P04626 23-1255): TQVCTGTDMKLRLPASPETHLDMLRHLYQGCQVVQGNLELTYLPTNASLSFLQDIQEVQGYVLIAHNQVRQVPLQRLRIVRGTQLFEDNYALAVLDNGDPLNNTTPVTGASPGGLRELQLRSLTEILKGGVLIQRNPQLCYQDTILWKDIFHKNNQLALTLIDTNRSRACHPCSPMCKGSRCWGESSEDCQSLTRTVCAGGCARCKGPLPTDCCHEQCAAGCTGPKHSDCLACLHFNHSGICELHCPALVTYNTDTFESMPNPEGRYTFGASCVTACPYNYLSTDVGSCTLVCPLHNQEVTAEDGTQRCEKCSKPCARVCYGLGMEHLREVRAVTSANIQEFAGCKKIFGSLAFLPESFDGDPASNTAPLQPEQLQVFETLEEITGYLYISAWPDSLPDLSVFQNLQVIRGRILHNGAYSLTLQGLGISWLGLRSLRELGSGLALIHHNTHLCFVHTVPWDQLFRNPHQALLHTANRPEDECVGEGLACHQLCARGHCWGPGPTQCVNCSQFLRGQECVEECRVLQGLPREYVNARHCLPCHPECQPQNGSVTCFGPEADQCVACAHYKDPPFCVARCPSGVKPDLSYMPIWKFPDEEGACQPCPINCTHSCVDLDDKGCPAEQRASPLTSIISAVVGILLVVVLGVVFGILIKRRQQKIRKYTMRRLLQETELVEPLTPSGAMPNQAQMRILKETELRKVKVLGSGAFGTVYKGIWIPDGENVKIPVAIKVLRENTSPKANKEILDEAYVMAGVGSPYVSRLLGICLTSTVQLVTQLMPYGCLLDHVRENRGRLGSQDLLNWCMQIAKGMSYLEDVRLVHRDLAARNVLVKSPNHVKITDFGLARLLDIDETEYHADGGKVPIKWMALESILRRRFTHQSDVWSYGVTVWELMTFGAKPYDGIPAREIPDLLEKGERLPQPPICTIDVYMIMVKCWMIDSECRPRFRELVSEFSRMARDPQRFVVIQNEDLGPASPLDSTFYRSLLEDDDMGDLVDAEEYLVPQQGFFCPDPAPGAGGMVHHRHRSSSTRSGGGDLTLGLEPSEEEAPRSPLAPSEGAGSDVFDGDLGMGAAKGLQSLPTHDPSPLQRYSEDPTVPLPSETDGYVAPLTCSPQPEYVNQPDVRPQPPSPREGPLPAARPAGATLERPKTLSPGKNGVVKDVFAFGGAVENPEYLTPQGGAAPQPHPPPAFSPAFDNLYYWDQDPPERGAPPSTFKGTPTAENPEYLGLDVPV

Structure (SMILES)	remaining binding at 1 µM [1] [%]	remaining binding at 1 µM [2] [%]	remaining binding at 1 µM [3] [%]	remaining binding at 1 µM [4] [%]	remaining binding at 1 µM [5] [%]	remaining binding at 1 µM [6] [%]	remaining binding at 1 µM [7] [%]
CC1(Nc2nc(Nc3cnn([C@H]4CCN(C5COC5)C[C@@H]4F)c3Cl)nc3[nH]cc(C#N)c23)CC1 [Example 52, 2-((5-chloro-1-((3S,4S)-3-fluoro-1-(oxetane-3-yl)piperidine-4-yl)-1H-pyrazole-4-yl)amino)((1-methylcyclopropyl)amino)-7H-pyrrolo[2,3-d]pyrimidine-5-carbonitrile]	72	57	100	0	45	93	78
CNc1nc(Nc2ccc(C(=O)N3CCOCC3)cc2OC)nc2[nH]cc(C#N)c12 [Example 1, 2-((2-methoxy-4-(morpholine-4-carbonyl)phenyl)amino)-4-(methylamino)-7H-pyrrolo[2,3-d]pyrimidine-5-carbonitrile]	99	82	79	0	95	81	95
CCNc1nc(Nc2ccc(C(=O)N3CCC(N4CCOCC4)CC3)cc2OC)nc2[nH]cc(C(F)(F)F)c12 [Example 104, (4-((4-(ethylamino)-5-(trifluoromethyl)-7H-pyrrolo[2,3-d]pyrimidine-2-yl)amino)-3-methoxyphenyl)(4-morpholinopiperidine-1-yl)methanone]	86	100	100	25	71	100	72
